Reference: US12077503B2, “Substituted cyclic amides and their use as herbicides” (FMC CORPORATION, priority 2015, dated 2024)

Key:
Experiment in all cases: Test C preemergence
Type in all cases: in vivo
[1] = tested on: ryegrass, Italian (Italian ryegrass, Lolium multiflorum); details: for Plant response rating, Ryegrass, Italian: scale 0 to 100, 0 no effect, 100 complete control
Method in brief: (§1)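 Visual 0 (no effect) to 100 (complete control) ratings versus controls, taken 13–15 d after treatment in the greenhouse; dash means no result. Compounds in a surfactant-containing non-phytotoxic solvent blend were applied preemergence to seeds in loam-sand soil or postemergence to 1- to 4-leaf plants (2–18 cm) in peat-based medium.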

[2] = tested on: Galium (catchweed bedstraw, Galium aparine); details: for Plant response rating, Galium: scale 0 to 100, 0 no effect, 100 complete control
Method in brief: as §1

[3] = tested on: wheat (winter wheat, Triticum aestivum); details: for Plant response rating, Wheat: scale 0 to 100, 0 no effect, 100 complete control
Method in brief: as §1

[4] = tested on: corn (Zea mays); details: for Plant response rating, Corn: scale 0 to 100, 0 no effect, 100 complete control
Method in brief: as §1

[5] = tested on: blackgrass (Alopecurus myosuroides); details: for Plant response rating, Blackgrass: scale 0 to 100, 0 no effect, 100 complete control
Method in brief: as §1

[6] = tested on: velvetleaf (Abutilon theophrasti); details: for Plant response rating, Velvetleaf: scale 0 to 100, 0 no effect, 100 complete control
Method in brief: as §1

[7] = tested on: ragweed (common ragweed, Ambrosia elatior); details: for Plant response rating, Ragweed: scale 0 to 100, 0 no effect, 100 complete control
Method in brief: as §1

[8] = tested on: oilseed rape (Brassica napus); details: for Plant response rating, Oilseed Rape: scale 0 to 100, 0 no effect, 100 complete control
Method in brief: as §1

[9] = tested on: nutsedge, yellow (yellow nutsedge, Cyperus esculentus); details: for Plant response rating, Nutsedge, Yellow: scale 0 to 100, 0 no effect, 100 complete control
Method in brief: as §1

[10] = tested on: foxtail, giant (giant foxtail, Setaria faberii); details: for Plant response rating, Foxtail, Giant: scale 0 to 100, 0 no effect, 100 complete control
Method in brief: as §1

[11] = tested on: soybean (Glycine max); details: for Plant response rating, Soybean: scale 0 to 100, 0 no effect, 100 complete control
Method in brief: as §1

[12] = tested on: morningglory (Ipomoea coccinea); details: for Plant response rating, Morningglory: scale 0 to 100, 0 no effect, 100 complete control
Method in brief: as §1

[13] = tested on: waterhemp (common waterhemp, Amaranthus rudis); details: for Plant response rating, Waterhemp: scale 0 to 100, 0 no effect, 100 complete control
Method in brief: as §1

[14] = tested on: lambsquarters (Chenopodium album); details: for Plant response rating, Lambsquarters: scale 0 to 100, 0 no effect, 100 complete control
Method in brief: as §1

[15] = tested on: crabgrass, large (large crabgrass, Digitaria sanguinalis); details: for Plant response rating, Crabgrass, Large: scale 0 to 100, 0 no effect, 100 complete control
Method in brief: as §1

[16] = tested on: johnsongrass (Sorghum halepense); details: for Plant response rating, Johnsongrass: scale 0 to 100, 0 no effect, 100 complete control
Method in brief: as §1

[17] = tested on: barnyardgrass (Echinochloa crus-galli); details: for Plant response rating, Barnyardgrass: scale 0 to 100, 0 no effect, 100 complete control
Method in brief: as §1

[18] = 31 g ai/ha, 0 is no effect, 100 is complete control

O=C1NCC(c2cccc(OC(F)(F)C(F)F)c2)C1C(=O)Nc1ccc(F)c(F)c1F (racemic) [Compound 698]
25: Plant response rating (scale of 0 to 100), Velvetleaf [6, 18] | Plant response rating, Morningglory ([12]; 250 g ai/ha)
70: Plant response rating, Corn ([4]; 62 g ai/ha) | Plant response rating, Blackgrass ([5]; 250 g ai/ha) | Plant response rating (scale of 0 to 100), Ragweed [7, 18] | Plant response rating, Lambsquarters ([14]; 125 g ai/ha)
100: Plant response rating (scale of 0 to 100), Galium [2, 18] | Plant response rating, Galium ([2]; 125 g ai/ha)
90: Plant response rating, Galium ([2]; 62 g ai/ha) | Plant response rating, Galium ([2]; 250 g ai/ha) | Plant response rating, Foxtail, Giant ([10]; 62 g ai/ha) | Plant response rating, Foxtail, Giant ([10]; 250 g ai/ha) | Plant response rating, Waterhemp ([13]; 250 g ai/ha) | Plant response rating (scale of 0 to 100), Crabgrass, Large [15, 18] | Plant response rating, Crabgrass, Large ([15]; 62 g ai/ha) | Plant response rating, Barnyardgrass ([17]; 62 g ai/ha) | Plant response rating, Barnyardgrass ([17]; 125 g ai/ha) | Plant response rating, Barnyardgrass ([17]; 250 g ai/ha)
10: Plant response rating (scale of 0 to 100), Lambsquarters [14, 18]
95: Plant response rating, Crabgrass, Large ([15]; 125 g ai/ha) | Plant response rating, Crabgrass, Large ([15]; 250 g ai/ha)
50: Plant response rating, Blackgrass ([5]; 125 g ai/ha) | Plant response rating, Velvetleaf ([6]; 125 g ai/ha)
40: Plant response rating (scale of 0 to 100), Corn [4, 18] | Plant response rating, Velvetleaf ([6]; 62 g ai/ha) | Plant response rating, Ragweed ([7]; 62 g ai/ha) | Plant response rating, Ragweed ([7]; 125 g ai/ha)
80: Plant response rating, Corn ([4]; 125 g ai/ha) | Plant response rating, Corn ([4]; 250 g ai/ha) | Plant response rating, Oilseed Rape ([8]; 125 g ai/ha) | Plant response rating, Lambsquarters ([14]; 250 g ai/ha) | Plant response rating, Johnsongrass ([16]; 125 g ai/ha)
30: Plant response rating, Ryegrass, Italian ([1]; 250 g ai/ha) | Plant response rating, Wheat ([3]; 250 g ai/ha) | Plant response rating, Oilseed Rape ([8]; 62 g ai/ha)
55: Plant response rating, Ragweed ([7]; 250 g ai/ha)
20: Plant response rating, Morningglory ([12]; 125 g ai/ha)
75: Plant response rating (scale of 0 to 100), Johnsongrass [16, 18] | Plant response rating, Johnsongrass ([16]; 62 g ai/ha) | Plant response rating (scale of 0 to 100), Barnyardgrass [17, 18]
35: Plant response rating (scale of 0 to 100), Soybean [11, 18] | Plant response rating, Lambsquarters ([14]; 62 g ai/ha)
85: Plant response rating, Oilseed Rape ([8]; 250 g ai/ha) | Plant response rating (scale of 0 to 100), Foxtail, Giant [10, 18] | Plant response rating, Foxtail, Giant ([10]; 125 g ai/ha) | Plant response rating (scale of 0 to 100), Waterhemp [13, 18] | Plant response rating, Waterhemp ([13]; 62 g ai/ha) | Plant response rating, Waterhemp ([13]; 125 g ai/ha) | Plant response rating, Johnsongrass ([16]; 250 g ai/ha)
65: Plant response rating, Velvetleaf ([6]; 250 g ai/ha)
0: Plant response rating (scale of 0 to 100), Ryegrass, Italian [1, 18] | Plant response rating, Ryegrass, Italian ([1]; 62 g ai/ha) | Plant response rating, Ryegrass, Italian ([1]; 125 g ai/ha) | Plant response rating (scale of 0 to 100), Wheat [3, 18] | Plant response rating, Wheat ([3]; 62 g ai/ha) | Plant response rating, Wheat ([3]; 125 g ai/ha) | Plant response rating (scale of 0 to 100), Blackgrass [5, 18] | Plant response rating, Blackgrass ([5]; 62 g ai/ha) | Plant response rating (scale of 0 to 100), Oilseed Rape [8, 18] | Plant response rating (scale of 0 to 100), Nutsedge, Yellow [9, 18] | Plant response rating, Nutsedge, Yellow ([9]; 62 g ai/ha) | Plant response rating, Nutsedge, Yellow ([9]; 125 g ai/ha) | Plant response rating, Nutsedge, Yellow ([9]; 250 g ai/ha) | Plant response rating, Soybean ([11]; 62 g ai/ha) | Plant response rating, Soybean ([11]; 125 g ai/ha) | Plant response rating, Soybean ([11]; 250 g ai/ha) | Plant response rating (scale of 0 to 100), Morningglory [12, 18] | Plant response rating, Morningglory ([12]; 62 g ai/ha)
